Measurements from BindingDB's records for doi:10.1021/jm001024j (Uppsala University, 2001).

What follows are molecules tested against T1, Dimer of Gag-Pol polyprotein [489-587] (Human immunodeficiency virus 1, UniProt P12497) (assay: Protease Inhibition Assay). Conditions: pH 5; 30 °C.
T1 construct: 489-587

`O=S1(=O)N(Cc2cccc(I)c2)[C@H](COc2ccccc2)[C@H](O)[C@@H](O)[C@@H](COc2ccccc2)N1Cc1cccc(I)c1` was tested. Which Ki did it give?
Its Ki is 93 nM.

For `CC(N=O)c1cccc(CN2[C@H](COc3ccccc3)[C@H](O)[C@@H](O)[C@@H](COc3ccccc3)N(Cc3cccc(C(C)N=O)c3)S2(=O)=O)c1` (stereo not given in full), which Ki is on record?
The Ki was 3.4 nM.

Which Ki does the source give for `CC(=O)c1cccc(CN2[C@H](COc3ccccc3)[C@H](O)[C@@H](O)[C@@H](COc3ccccc3)N(Cc3cccc(C(C)=O)c3)S2(=O)=O)c1` here?
Its Ki is 59 nM.

Which Ki does the source give for `O=S1(=O)N(Cc2cccc(CCO)c2)[C@H](COc2ccccc2)[C@H](O)[C@@H](O)[C@@H](COc2ccccc2)N1Cc1cccc(CCO)c1` here?
Its Ki is 43 nM.

`O=S1(=O)N(Cc2ccc(CO)cc2)[C@H](COc2ccccc2)[C@H](O)[C@@H](O)[C@@H](COc2ccccc2)N1Cc1ccc(CO)cc1` was tested. Which Ki did it give?
Its Ki is 3.1 nM.

With `COC(=O)c1ccc(CN2[C@H](COc3ccccc3)[C@H](O)[C@@H](O)[C@@H](COc3ccccc3)N(Cc3ccc(C(=O)OC)cc3)S2(=O)=O)cc1` as the molecule, how does the Ki read?
The Ki was 84 nM.

For `O=C(CN1[C@H](COc2ccccc2)[C@H](O)[C@@H](O)[C@@H](COc2ccccc2)N(Cc2ccc(-c3cccs3)cc2)S1(=O)=O)Nc1nccs1` [2-[(3R,4S,5S,6R)-4,5-dihydroxy-1,1-dioxo-3,6-bis(phenoxymethyl)-7-{[4-(thiophen-2-yl)phenyl]methyl}-1,2,7-thiadiazepan-2-yl]-N-(1,3-thiazol-2-yl)acetamide], which Ki is on record?
Its Ki is 1800 nM.

How did the Ki turn out when `CNC(=O)CN1[C@H](COc2ccccc2)[C@H](O)[C@@H](O)[C@@H](COc2ccccc2)N(Cc2ccccc2)S1(=O)=O` [2-[(3R,4S,5S,6R)-7-benzyl-4,5-dihydroxy-1,1-dioxo-3,6-bis(phenoxymethyl)-1,2,7-thiadiazepan-2-yl]-N-methylacetamide] was run?
Its Ki is 1400 nM.

How did the Ki turn out when `CNC(=O)c1cccc(CN2[C@H](COc3ccccc3)[C@H](O)[C@@H](O)[C@@H](COc3ccccc3)N(Cc3cccc(C(=O)NC)c3)S2(=O)=O)c1` [(3R,4S,5S,6R)-2,7-Bis[3-(N-methylcarbamoyl)benzyl]-3,6-bis(phenoxymethyl)-4,5-dihydroxy-1,2,7-thiadiazepine 1,1-Dioxide] was run?
The Ki was 39 nM.

For `CNC(=O)CN1[C@H](COc2ccccc2)[C@H](O)[C@@H](O)[C@@H](COc2ccccc2)N(CC(=O)NC)S1(=O)=O` [(3R,4S,5S,6R)-2,7-Bis[(N-methylcarbamoyl)methyl]-3,6-bis(phenoxymethyl)-4,5-dihydroxy-1,2,7-thiadiazepine 1,1-Dioxide], which Ki is on record?
Its Ki is 25000 nM.

How did the Ki turn out when `CN1[C@H](COc2ccccc2)[C@H](O)[C@@H](O)[C@@H](COc2ccccc2)N(C)S1(=O)=O` [(3R,4S,5S,6R)-2,7-Bismethyl-3,6-bis(phenoxymethyl)-4,5-dihydroxy-1,2,7-thiadiazepine 1,1-Dioxide] was run?
The Ki was 710 nM.

For `COC(Cc1cccc(CN2[C@H](COc3ccccc3)[C@H](O)[C@@H](O)[C@@H](COc3ccccc3)N(Cc3cccc(CC(OC)OC)c3)S2(=O)=O)c1)OC` [(3R,4S,5S,6R)-2,7-bis({[3-(2,2-dimethoxyethyl)phenyl]methyl})-4,5-dihydroxy-3,6-bis(phenoxymethyl)-1,2,7-thiadiazepane-1,1-dione], which Ki is on record?
The Ki was 540 nM.

`O=S1(=O)N(Cc2ccccc2)[C@H](COc2ccccc2)[C@H](O)[C@@H](O)[C@@H](COc2ccccc2)N1Cc1ccc(-c2cccs2)cc1` [(3R,4S,5S,6R)-2-benzyl-4,5-dihydroxy-3,6-bis(phenoxymethyl)-7-{[4-(thiophen-2-yl)phenyl]methyl}-1,2,7-thiadiazepane-1,1-dione] was tested. Which Ki did it give?
Its Ki is 63 nM.

Which Ki does the source give for `O=S1(=O)N(Cc2cccc(-c3cccs3)c2)[C@H](COc2ccccc2)[C@H](O)[C@@H](O)[C@@H](COc2ccccc2)N1Cc1cccc(-c2cccs2)c1` [(3R,4S,5S,6R)-3,6-Bis(phenoxymethyl)-2,7-bis[3-(2-thienyl)benzyl]-4,5-dihydroxy-1,2,7-thiadiazepine 1,1-Dioxide] here?
Its Ki is 2200 nM.

Which Ki does the source give for `O=C(CN1[C@H](COc2ccccc2)[C@H](O)[C@@H](O)[C@@H](COc2ccccc2)N(Cc2cccc(-c3cccs3)c2)S1(=O)=O)Nc1nccs1` [(3R,4S,5S,6R)-3,6-Bis(phenoxymethyl)-4,5-dihydroxy-2-[(N-2-thiazolylcarbamoyl)methyl]-7-[3-(2-thienyl)benzyl]-1,2,7-thiadiazepine 1,1-Dioxide] here?
The Ki was 140 nM.

`O=C(CN1[C@H](COc2ccccc2)[C@H](O)[C@@H](O)[C@@H](COc2ccccc2)N(Cc2cccc(I)c2)S1(=O)=O)Nc1nccs1` [(3R,4S,5S,6R)-3,6-Bis(phenoxymethyl)-4,5-dihydroxy-7-(3-iodobenzyl)-2-[(N-2-thiazolylcarbamoyl)methyl]-1,2,7-thiadiazepine 1,1-Dioxide] was tested. Which Ki did it give?
Its Ki is 510 nM.

`O=C(CN1[C@H](COc2ccccc2)[C@H](O)[C@@H](O)[C@@H](COc2ccccc2)N(Cc2ccccc2)S1(=O)=O)Nc1nccs1` [(3R,4S,5S,6R)-3,6-Bis(phenoxymethyl)-4,5-dihydroxy-7-benzyl-2-[(N-2-thiazolylcarbamoyl)methyl]-1,2,7-thiadiazepine 1,1-Dioxide] was tested. Which Ki did it give?
The Ki was 350 nM.

How did the Ki turn out when `CN1[C@H](COc2ccccc2)[C@H](O)[C@@H](O)[C@@H](COc2ccccc2)N(Cc2ccccc2)S1(=O)=O` [(3R,4S,5S,6R)-3,6-Bis(phenoxymethyl)-4,5-dihydroxy-7-methyl-2-benzyl-1,2,7-thiadiazepine 1,1-Dioxide] was run?
The Ki was 510 nM.

For `O=S1(=O)N(Cc2ccc(-c3cccs3)cc2)[C@H](COc2ccccc2)[C@H](O)[C@@H](O)[C@@H](COc2ccccc2)N1Cc1ccc(-c2cccs2)cc1` [(3R,4S,5S,6R)-4,5-dihydroxy-3,6-bis(phenoxymethyl)-2,7-bis({[4-(thiophen-2-yl)phenyl]methyl})-1,2,7-thiadiazepane-1,1-dione], which Ki is on record?
Its Ki is 920 nM.

`O=S1(=O)N(Cc2ccc(-c3cccs3)cc2)[C@H](COc2ccccc2)[C@H](O)[C@@H](O)[C@@H](COc2ccccc2)N1Cc1cccc(-c2cccs2)c1` [(3R,4S,5S,6R)-4,5-dihydroxy-3,6-bis(phenoxymethyl)-7-{[3-(thiophen-2-yl)phenyl]methyl}-2-{[4-(thiophen-2-yl)phenyl]methyl}-1,2,7-thiadiazepane-1,1-dione] was tested. Which Ki did it give?
Its Ki is 6000 nM.
